Experimental data: US10493118B2, “Triterpenoid obtainable from hedera helix for treatment of neurodegenerative diseases” (Macau University of Science and Technology, priority 2016, dated 2019)

Assays:
[1] = test system: GFP-LC3 transfected Atg7+/+ and Atg7−/− MEFs; assay: GFP-LC3 puncta formation in ATG7 wild-type and ATG7 deficient MEFs; assay type: cell-based, mouse; conditions: α-hederin 12 or 24 μM, hederagenin 40, 60 or 80 μM, 24 h
Protocol: Immunocytochemistry and fluorescence microscopy: In brief, GFP-LC3 puncta formation was analyzed as described previously (Wu, A. G. et al. Int J Mol Sci 2013, 14:22618-22641). Firstly, cells were plated on top of coverslips inside a 6-well culture dish. After compounds treatments, cells were fixed with 4% paraformaldehyde for 20 min. FluorSave™ mounting media (Calbiochem, San Diego, Calif., USA) was used to mount the coverslips with cells before subjected to fluorescence microscopic analysis. The number of GFP-positive cells, and cells with GFP-LC3 puncta formation was examined and counted under the Nikon ECLIPSE 80i microscope by using 40× of magnification. In order to standardize the quantitation, the percentage of cells with autophagy induction was defined by counting the number of cells with punctate GFP-LC3 fluorescence in GFP-positive cells. A minimum of 1000 GFP-positive cells from 3 randomly selected fields were scored.

p-p70S6K = assay: Western blot of p70S6K phosphorylation (downstream target of mTOR); assay type: cell-based; conditions: hederagenin 0-80 μM, α-hederin 0-24 μM, 24 h
Description: (§1) Protein extraction and Western blots: Cells were harvested by RIPA lysis buffer (Cell Signaling Technologies, Beverly, Mass., USA), and with the final protein concentrations measured by using Bradford reagent (Bio-Rad, Hercules, Calif., USA). After electrophoresis for protein band separation, proteins were transferred to the nitrocellulose membrane which was blocked with 5% non-fat dried milk immediately after protein transfer. Corresponding primary antibodies, followed by the addition of HRP-conjugated secondary antibodies, were incubated with the protein membrane with constant shaking. Visualization of protein band pattern was performed by using the ECL Western Blotting Detection Reagents (Invitrogen, Paisley, Scotland). Band intensities were quantified by using the software, ImageJ (ImageJ 1.46r; National Institutes of Health, Bethesda, Md., USA).

p-AMPK = assay: Western blot of AMPK phosphorylation; assay type: cell-based; conditions: hederagenin 0-80 μM, α-hederin 0-24 μM, 24 h
Description: as §1

[2] = test system: α-synuclein oligomerization; assay: Bimolecular fluorescence complementation (BiFC) assay of α-synuclein oligomerization in HeLa cells; assay type: cell-based; conditions: for oligomerization of α-syn (GFP fluorescence intensity): transfected HeLa cells, hederagenin 40 or 80 μM, α-hederin 12 or 24 μM, 24 h
Protocol: Bimolecular Fluorescence Complementation (BiFC) Assay: Both (1) non-fluorescent GFP-N terminal (GFP-N-α-syn), or (2) non-fluorescent GFP-C terminal (GFP-C-α-syn) plasmids were generous gifts from Pamela J. McLean (Department of Neuroscience, Mayo Clinic Florida, Jacksonville, Fla., USA). HeLa cells transfected with both GFP-N-α-syn and GFP-C-α-syn plasmids were incubated at 37° C. for 4 h. Cells were then subjected to different concentration of hederagenin or α-hederin treatments for a further 24 h in a humidified incubator at […] (Outeiro, T. F. et al., PLoS One 2008, 3:e1867). Green fluorescent signal which indicates the reconstitution of complete GFP proteins was detected by flow analysis (BD FACSAria III, San Jose, Calif., USA).

[3] = test system: EGFP-HTT 74 (mutant huntingtin); assay: Mutant huntingtin (EGFP-HTT 74) clearance and inclusion formation in ATG7+/+ and ATG7−/− MEFs; assay type: cell-based, mouse; conditions: 24 h; for percentage of cells with fluorescence mutant huntingtin inclusion formation: ATG7−/− compared with ATG7+/+ MEFs after treatment; for inclusion clearance of overexpressed mutant huntingtin in ATG7+/+ MEFs: EGFP-HTT 74 transfected ATG7+/+ MEFs
Description: as §1
(§2) Cells were then treated with either hederagenin or α-hederin for a further 24 h to determine the protein level of mutant huntingtin by Western blot analysis using an antibody against GFP (Ravikumar, B. et al., Nat Genet 2004, 36:585-595). On the other hand, ATG7 wild-type and ATG7-deficient MEF cells transfected with EGFP-HTT 74 were analyzed for the formation of huntingtin inclusion after 24 h of hederagenin or α-hederin treatment. Percentages of cells with cytoplasmic GFP-huntingtin (GFP-HTT74) inclusion formation were counted by the number of cells with GFP inclusions over the total number of GFP-positive cells in the same field under fluorescent microscopic analysis. More than 200 GFP-positive cells were scored for each treatment.

[4] = test system: PC-12 cells treated with 0.5 mM MPTP; assay: Rescue from MPTP-induced cell death in PC-12 cells (MTT, Annexin V flow cytometry); assay type: cell-based; conditions: cell density, MTT assay and flow cytometry
Protocol: Cytotoxicity Assays and Flow Cytometry: Cell viability was measured by using the MTT method (3-[4,5-dimethylthiazol-2-yl]-2,5-diphenyl tetrazolium bromide) as described previously (Wu, A. G. et al. Int J Mol Sci 2013, 14:22618-22641). Absorbance (OD) of cell samples was obtained by spectrophotometer at 570 nm. The percentage of cell viability was calculated by using the formula: cell viability (%)=cells numbertreated/cells numberDMSO control×100. All MTT data were calculated from three independent experiments. Cell viability was also measured by flow cytometry using the Annexin V staining kit (BD Biosciences, San Jose, Calif., USA). In brief, PC-12 cells treated with hederagenin and α-hederin were analyzed by multiparametric flow cytometry using FITC-Annexin V and/or propidium iodide staining (BD Biosciences, San Jose, Calif., USA) by following manufacturer's instructions. Flow cytometry was then carried out using a FACSCalibur flow cytometer (BD Biosciences). Data acquisition and analysis were performed with CellQuest (BD Biosciences).

[5] = test system: GFP-LC3 transfected PC-12 cells; assay: GFP-LC3 autophagic puncta formation by fluorescence microscopy; assay type: cell-based; conditions: for percentage of cells with GFP-LC3 puncta formation with addition of 3-MA: 60 μM hederagenin or 18 μM α-hederin with 5 mM 3-MA for 24 h; for formation of GFP-LC3 puncta with AMPK inhibitor compound C (CC): 60 μM hederagenin or 18 μM α-hederin with 5 mM CC for 24 h; for formation of fluorescent LC3 II puncta: PC-12 cells, hederagenin 20-80 μM, α-hederin 6-24 μM, 4-24 h
Protocol: Firstly, cells were plated on top of coverslips inside a 6-well culture dish. After compound treatment, cells were fixed with 4% paraformaldehyde for 20 min. FluorSave™ mounting media (Calbiochem, San Diego, Calif., USA) was used to mount the coverslips with cells before subjected to fluorescence microscopic analysis. The number of GFP-positive cells, and cells with GFP-LC3 puncta formation were examined and counted under the Nikon ECLIPSE 80i microscope by using 40× of magnification. In order to standardize the quantitation, the percentage of cells with autophagy induction was defined by counting the number of cells with increased punctate GFP-LC3 fluorescence in GFP-positive cells. A minimum of 1000 GFP-positive cells from 3 randomly selected fields were scored.

LC3-II [6] = assay: Western blot of LC3 conversion (LC3-II) in PC-12 cells; assay type: cell-based; conditions: for protein level of LC3-II with AMPK inhibitor compound C (CC): 60 μM hederagenin or 18 μM α-hederin with 5 μM CC; for protein level of LC3-II with addition of 3-MA: 60 μM hederagenin or 18 μM α-hederin with 5 mM 3-MA; for rate of LC3-II formation with lysosomal protease inhibitors (autophagic flux): 60 μM hederagenin or 18 μM α-hederin with E64d and pepstatin A (10 μg/mL), compared with compounds alone; for protein level of LC3-II: PC-12 cells, various durations and concentrations
LC3-II [7] = assay: Western blot of LC3-II in ATG7+/+ and ATG7−/− MEFs; assay type: cell-based, mouse; conditions: 24 h
Description: as §1

[8] = test system: EGFP-HTT 74 (mutant huntingtin); assay: Mutant huntingtin (EGFP-HTT 74) clearance in transfected PC-12 cells, Western blot; assay type: cell-based; conditions: EGFP-HTT 74 transfected PC-12 cells; hederagenin 40-80 μM, α-hederin 12-24 μM
Description: as §1, with “Visualization of protein band pattern was performed by using the ECL Western Blotting Detection Reagents (Invitrogen, Paisley, Scotland).” left out
as §2, with “More than 200 GFP-positive cells were scored for each treatment.” left out

Compound	GFP-LC3-II puncta formation in ATG7-wild type MEFs [1]	phosphorylation of p70S6K (p-p70S6K)	phosphorylation of AMPK (p-AMPK)	inhibition of α-syn oligomerization relative to α-hederin ([2]; BiFC assay, HeLa cells)	oligomerization of α-syn (GFP fluorescence intensity) [2]	percentage of cells with fluorescence mutant huntingtin inclusion formation [3]	inclusion clearance of overexpressed mutant huntingtin in ATG7+/+ MEFs [3]	rescue from MPTP-induced cell death [4]	percentage of cells with GFP-LC3 puncta formation with addition of 3-MA [5]	formation of GFP-LC3 puncta with AMPK inhibitor compound C (CC) [5]	formation of fluorescent LC3 II puncta [5]	protein level of LC3-II with AMPK inhibitor compound C (CC) (LC3-II [6])	protein level of LC3-II with addition of 3-MA (LC3-II [6])	rate of LC3-II formation with lysosomal protease inhibitors (autophagic flux) (LC3-II [6])	protein level of LC3-II (LC3-II [6])	protein expression of LC3-II in ATG7+/+ MEFs (LC3-II [7])	clearance of overexpressed huntingtin in PC-12 cells [8]
CC1(C)CC[C@]2(C(=O)O)CC[C@]3(C)C(=CC[C@@H]4[C@@]5(C)CC[C@H](O)[C@@](C)(CO)[C@@H]5CC[C@]43C)[C@@H]2C1 [hederagenin]	significantly increase the GFP-LC3-II puncta formation	reduced phosphorylation of p70S6K	increased phosphorylation of AMPK	more potent in the inhibition	inhibit the oligomerization of α-syn	higher percentage of cells with fluorescence mutant huntingtin inclusion formation was found in ATG−/− MEFs	facilitate the inclusion clearance of overexpressed mutant huntingtin	rescue cells from MPTP-induced cell death	decreases the rate of autophagy	significant reduction	increased formation of fluorescent LC3 II puncta	significant reduction in protein level of LC3-II	decreased protein level of LC3-II	significantly increase the rate of LC3-II formation	increase in the protein level of LC3-II via a dose- and time-dependent manner	significant increased protein expression of LC3-II	facilitate the clearance of overexpressed huntingtin
C[C@@H]1O[C@@H](O[C@H]2[C@H](O[C@H]3CC[C@@]4(C)[C@@H](CC[C@]5(C)[C@@H]4CC=C4[C@@H]6CC(C)(C)CC[C@]6(C(=O)O)CC[C@]45C)[C@]3(C)CO)OC[C@H](O)[C@@H]2O)[C@H](O)[C@H](O)[C@H]1O [α-hederin]	significantly increase the GFP-LC3-II puncta formation	reduced phosphorylation of p70S6K	increased phosphorylation of AMPK		inhibit the oligomerization of α-syn	higher percentage of cells with fluorescence mutant huntingtin inclusion formation was found in ATG−/− MEFs	facilitate the inclusion clearance of overexpressed mutant huntingtin	rescue cells from MPTP-induced cell death	decreases the rate of autophagy	significant reduction	increased formation of fluorescent LC3 II puncta	significant reduction in protein level of LC3-II	decreased protein level of LC3-II	significantly increase the rate of LC3-II formation	increase in the protein level of LC3-II via a dose- and time-dependent manner	significant increased protein expression of LC3-II	facilitate the clearance of overexpressed huntingtin
